Columns and labels:
[1] = target: SRPK2 (Homo sapiens (Human), UniProt P78362); experiment: KINOMEscan competitive binding assay; conditions: 10 uM
[2] = system: VEGF-C induced lymphangiogenesis; experiment: Lymph node lymphangiogenesis model (VEGF-C Matrigel); assay type: in vivo, mice; conditions: 200 μl of 5.25 mg/ml ip twice daily, 7 days
Method: (FIG. 12A) Images of local lymph node lymphangiogenesis model between saline and VEGF-C matrigel.
Lymphangiogenesis assays were performed by subcutaneously injecting 350 μl of cold Matrigel containing saline or […] of VEGF-C(R&D Systems, Minneapolis, Minn.) into wild-type C57B1/6 mice. […] After 7 days, lymph nodes were removed, embedded in OCT, frozen and sectioned. Thin sections (5 μm) were fixed in ice cold acetone for five minutes, permeabilized in 0.1% Triton X-100 in phosphate buffered saline (PBS), blocked in 8% normal donkey serum diluted in PBS for 1.5 hours at room temperature and then incubated with 2 μg/ml anti-murine Lyve-1 (RDI-103PA50) in 8% normal donkey serum diluted in saline overnight at 4° C. After extensive washing, slides were incubated with 1 μg/ml cross-absorbed donkey anti-rabbit IgG (H+L) conjugated with Alexa Fluor 488 (Invitrogen). Slides were counterstained with DAPI. Coverslips were mounted with Dako Cytomation fluorescent mounting medium (Dako Corporation, Carpinteria, Calif.). At least five microscopic fields per tissue section/mouse were analyzed for quantification studies.

[3] = target: PKAC-alpha (Homo sapiens (Human), UniProt P17612); experiment: KINOMEscan competitive binding assay; conditions: 10 uM
[4] = target: SRC (Homo sapiens (Human), UniProt P12931); experiment: KINOMEscan competitive binding assay; conditions: 10 uM
Chain of SRC (P12931 whole entry, looked up): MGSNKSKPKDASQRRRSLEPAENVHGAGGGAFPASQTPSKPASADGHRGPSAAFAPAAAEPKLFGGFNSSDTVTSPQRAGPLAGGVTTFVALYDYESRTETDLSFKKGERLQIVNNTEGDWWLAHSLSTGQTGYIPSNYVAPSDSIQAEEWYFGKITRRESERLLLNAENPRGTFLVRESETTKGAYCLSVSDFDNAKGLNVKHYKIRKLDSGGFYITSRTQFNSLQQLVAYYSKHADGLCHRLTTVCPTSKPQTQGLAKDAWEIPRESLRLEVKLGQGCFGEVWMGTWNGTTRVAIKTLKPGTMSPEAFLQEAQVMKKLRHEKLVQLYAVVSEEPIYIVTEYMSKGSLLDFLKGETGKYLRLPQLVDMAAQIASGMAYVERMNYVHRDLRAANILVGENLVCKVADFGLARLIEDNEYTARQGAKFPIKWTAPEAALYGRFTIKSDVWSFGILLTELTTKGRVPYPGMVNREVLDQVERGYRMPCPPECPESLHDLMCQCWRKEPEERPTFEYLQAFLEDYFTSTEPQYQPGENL

[5] = target: B-RAF/C-RAF dimerization (Homo sapiens (Human), UniProt P15056); experiment: B-RAF/C-RAF dimerization in XPA-1 pancreatic cancer cells (immunoprecipitation/Western); assay type: cell-based; conditions: XPA-1 cells
Chain of B-RAF/C-RAF dimerization (P15056 whole entry): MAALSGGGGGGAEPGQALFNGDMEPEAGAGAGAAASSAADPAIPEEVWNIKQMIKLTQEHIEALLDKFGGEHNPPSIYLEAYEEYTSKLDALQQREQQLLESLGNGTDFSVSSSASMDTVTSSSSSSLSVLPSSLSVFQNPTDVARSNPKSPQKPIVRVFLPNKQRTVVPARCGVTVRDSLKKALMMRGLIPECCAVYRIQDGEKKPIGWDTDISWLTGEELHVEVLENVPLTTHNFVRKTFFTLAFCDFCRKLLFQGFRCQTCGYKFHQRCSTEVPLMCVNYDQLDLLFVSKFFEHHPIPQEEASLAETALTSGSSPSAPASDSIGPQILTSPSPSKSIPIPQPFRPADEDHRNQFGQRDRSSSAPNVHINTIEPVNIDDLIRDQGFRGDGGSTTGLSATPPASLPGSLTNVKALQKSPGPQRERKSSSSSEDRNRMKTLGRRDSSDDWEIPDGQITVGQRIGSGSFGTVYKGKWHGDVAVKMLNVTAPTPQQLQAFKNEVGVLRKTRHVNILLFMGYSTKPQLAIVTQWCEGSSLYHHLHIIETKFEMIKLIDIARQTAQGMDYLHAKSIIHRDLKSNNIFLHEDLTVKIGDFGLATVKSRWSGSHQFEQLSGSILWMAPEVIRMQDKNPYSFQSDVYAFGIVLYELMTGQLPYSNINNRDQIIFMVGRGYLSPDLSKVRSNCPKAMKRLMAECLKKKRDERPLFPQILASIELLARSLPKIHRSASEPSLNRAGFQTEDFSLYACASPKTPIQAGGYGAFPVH

[6] = target: PRKCE (Homo sapiens (Human), UniProt Q02156); experiment: KINOMEscan competitive binding assay; conditions: 10 uM
Chain of PRKCE (Q02156 whole entry): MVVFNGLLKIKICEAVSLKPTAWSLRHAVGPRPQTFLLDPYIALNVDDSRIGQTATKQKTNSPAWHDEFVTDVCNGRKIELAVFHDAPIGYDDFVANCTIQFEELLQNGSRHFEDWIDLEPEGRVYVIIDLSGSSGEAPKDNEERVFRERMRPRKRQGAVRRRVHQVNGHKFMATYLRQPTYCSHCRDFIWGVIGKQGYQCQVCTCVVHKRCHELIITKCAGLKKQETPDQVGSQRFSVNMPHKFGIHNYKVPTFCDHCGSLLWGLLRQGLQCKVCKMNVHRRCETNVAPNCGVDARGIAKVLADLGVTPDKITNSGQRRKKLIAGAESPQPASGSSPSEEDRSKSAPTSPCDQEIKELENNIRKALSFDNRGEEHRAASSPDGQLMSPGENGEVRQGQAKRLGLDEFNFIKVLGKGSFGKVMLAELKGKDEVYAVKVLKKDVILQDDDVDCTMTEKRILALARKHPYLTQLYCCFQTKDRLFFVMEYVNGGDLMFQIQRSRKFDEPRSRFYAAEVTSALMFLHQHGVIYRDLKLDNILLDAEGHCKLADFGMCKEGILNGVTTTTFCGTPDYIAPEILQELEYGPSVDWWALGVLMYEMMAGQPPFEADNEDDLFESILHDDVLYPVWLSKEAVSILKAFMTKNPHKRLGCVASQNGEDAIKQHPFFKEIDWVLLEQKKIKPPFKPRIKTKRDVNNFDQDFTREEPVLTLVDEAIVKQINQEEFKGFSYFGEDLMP

[7] = target: MLK3 (Homo sapiens (Human), UniProt Q16584); experiment: KINOMEscan competitive binding assay; conditions: 10 uM
Chain of MLK3 (Q16584 whole entry): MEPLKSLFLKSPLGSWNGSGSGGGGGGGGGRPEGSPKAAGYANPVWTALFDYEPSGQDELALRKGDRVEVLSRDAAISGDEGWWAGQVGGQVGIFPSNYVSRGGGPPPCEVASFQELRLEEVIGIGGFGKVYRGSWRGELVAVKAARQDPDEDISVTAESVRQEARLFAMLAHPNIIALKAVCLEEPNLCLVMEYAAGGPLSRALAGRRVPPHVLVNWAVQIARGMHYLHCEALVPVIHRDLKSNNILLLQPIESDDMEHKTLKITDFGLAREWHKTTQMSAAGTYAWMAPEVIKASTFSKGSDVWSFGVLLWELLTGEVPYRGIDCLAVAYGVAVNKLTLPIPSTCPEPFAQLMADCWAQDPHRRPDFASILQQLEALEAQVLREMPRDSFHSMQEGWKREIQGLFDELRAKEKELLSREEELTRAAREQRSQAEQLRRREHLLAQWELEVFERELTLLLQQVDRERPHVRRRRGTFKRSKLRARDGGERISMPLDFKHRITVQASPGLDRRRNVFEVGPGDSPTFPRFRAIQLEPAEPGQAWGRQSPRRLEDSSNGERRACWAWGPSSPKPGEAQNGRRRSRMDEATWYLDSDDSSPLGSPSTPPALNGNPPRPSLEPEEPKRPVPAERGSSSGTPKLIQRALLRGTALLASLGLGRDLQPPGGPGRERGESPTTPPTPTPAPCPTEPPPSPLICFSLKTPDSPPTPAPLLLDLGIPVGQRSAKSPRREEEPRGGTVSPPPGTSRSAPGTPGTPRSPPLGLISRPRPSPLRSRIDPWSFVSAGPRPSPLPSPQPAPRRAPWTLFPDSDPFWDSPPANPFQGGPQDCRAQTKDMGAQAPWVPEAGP

[8] = target: RAF1 (Homo sapiens (Human), UniProt P04049); experiment: KINOMEscan competitive binding assay; conditions: 10 uM
Chain of RAF1 (P04049 349-609): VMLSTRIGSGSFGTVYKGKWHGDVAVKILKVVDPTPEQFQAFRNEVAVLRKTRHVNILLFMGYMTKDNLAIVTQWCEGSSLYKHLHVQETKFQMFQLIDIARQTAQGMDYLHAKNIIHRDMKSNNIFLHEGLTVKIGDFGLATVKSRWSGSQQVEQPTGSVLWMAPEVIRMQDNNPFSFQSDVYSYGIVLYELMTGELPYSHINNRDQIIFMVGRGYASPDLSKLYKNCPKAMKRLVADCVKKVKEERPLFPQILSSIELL

[9] = system: 1205Lu; experiment: Tumor cell viability; assay type: cell-based, human; conditions: Melanoma 1205Lu, B-RAF V600E
Method: (§1) For XTT assays, cells were grown in 96-well plates overnight and all assays were conducted in growth medium will full serum and additives. Compounds were serially diluted in DMSO and then further diluted into the medium to give the appropriate concentration while minimizing precipitation associated with serial diluting in medium alone Inhibitors were added for 72 h and cell viability was quantified at 450 nm after the addition of 1 mg/ml XTT solution (Sigma-Aldrich) in phenol-red free DMEM medium containing […] (Sigma-Aldrich). Dose-response curves were plotted using GraphPad Prism software and EC50s were calculated using this program.

[10] = system: XPA1-RFP; experiment: Tumor cell viability; assay type: cell-based, human; conditions: Pancreatic AC XPA1-RFP, K-Ras
Method: as §1

[11] = system: tumor lines; experiment: Tumor cell viability, summary over tumor lines; assay type: cell-based; conditions: summary of Table 5

Chain of SRPK2 (P78362 whole entry): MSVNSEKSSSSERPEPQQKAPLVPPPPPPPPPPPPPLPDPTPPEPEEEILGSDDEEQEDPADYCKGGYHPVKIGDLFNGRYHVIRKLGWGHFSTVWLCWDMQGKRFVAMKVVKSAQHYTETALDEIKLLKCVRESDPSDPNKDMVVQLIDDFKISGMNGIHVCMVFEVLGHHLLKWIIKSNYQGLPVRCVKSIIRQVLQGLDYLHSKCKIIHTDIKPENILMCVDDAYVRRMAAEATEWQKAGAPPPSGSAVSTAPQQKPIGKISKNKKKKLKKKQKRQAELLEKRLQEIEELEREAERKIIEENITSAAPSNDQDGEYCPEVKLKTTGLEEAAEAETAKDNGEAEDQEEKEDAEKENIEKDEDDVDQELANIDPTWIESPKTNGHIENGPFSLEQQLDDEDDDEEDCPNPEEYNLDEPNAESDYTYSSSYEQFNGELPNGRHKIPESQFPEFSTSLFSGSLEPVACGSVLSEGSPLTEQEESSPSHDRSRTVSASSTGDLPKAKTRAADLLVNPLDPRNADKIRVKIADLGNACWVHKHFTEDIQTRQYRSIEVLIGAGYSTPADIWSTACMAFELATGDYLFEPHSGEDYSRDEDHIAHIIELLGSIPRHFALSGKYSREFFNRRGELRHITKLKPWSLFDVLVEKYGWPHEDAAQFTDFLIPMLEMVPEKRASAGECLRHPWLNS

With CSc1nc(N)cc(Oc2ccc(-c3nnc(Nc4cccc(C(F)(F)F)c4)[nH]3)cc2)n1 [Compound 6] the “% Control” value [1] was 100%, the “lymphangiogenesis in lymph nodes” value [2] was “clearly showed inhibition of lymphangiogenesis” and the “% Control” value [3] was 100%. The “% Control” value [4] was 90%, the “RAF dimerization and pS338-CRAF” value [5] was “prevent RAF dimerization and pS338-CRAF” and the “% Control” value [6] was 91%. For the same compound, the “% Control” value [7] was 96%, the “% Control” value [8] was 52% and the EC50 [9] was 0.83 µM. The EC50 [10] was 0.28 µM, the “times more potent than sorafenib” value [11] was 15-100 times and the EC50 ([11]; read-out: EC50 in wide range of tumor lines) was 0.1 to 0.6 µM.
